Laboratory results: ChEMBL document CHEMBL4043226, “Design, synthesis and biological evaluation of benzamide and phenyltetrazole derivatives with amide and urea linkers as BCRP inhibitors” (Bioorg Med Chem Lett, 2017)

Key:
[1] = Cytotoxicity against human NCI-H460/MX20 cells after 72 hrs by MTT assay; format: cell-based; settings: NCI-H460/MX20, 72 h
[2] = Resistance index, ratio of mitoxantrone IC50 for human H460/MX20 cells to mitoxantrone IC50 for human H460 cells at 1 uM (reference value: 28.66)
[3] = Resistance index, ratio of mitoxantrone IC50 for human H460/MX20 cells to mitoxantrone IC50 for human H460 cells at 3 uM (reference value: 28.66)
NCI-H460 = test: Cytotoxicity against human H460 cells after 72 hrs by MTT assay; format: cell-based; settings: NCI-H460, 72 h
[4] = Inhibition of ABCG2 in human H460/MX20 cells assessed as potentiation of mitoxantrone induced antiproliferative activity by measuring mitoxantrone IC50 at 3 uM preincubated for 2 hrs followed by mitoxantrone addition measured after 72 hrs by MTT assay (reference value: 6.161 +/- 0.172 microM)
[5] = Resistance index, ratio of mitoxantrone IC50 for human H460/MX20 cells to mitoxantrone IC50 for human H460 cells at 10 uM (reference value: 28.66)
[6] = Inhibition of ABCG2 in human H460/MX20 cells assessed as potentiation of mitoxantrone induced antiproliferative activity by measuring mitoxantrone IC50 at 10 uM preincubated for 2 hrs followed by mitoxantrone addition measured after 72 hrs by MTT assay (reference value: 6.161 +/- 0.172 microM)

COc1cccc(-n2nnc(-c3ccccc3NC(=O)c3ccccc3[N+](=O)[O-])n2)c1
IC50 [1]: 44.7 µM | Ratio IC50 [2]: 8.74 | Ratio IC50 [3]: 6.14 | IC50 (NCI-H460): 38.9 µM | IC50 [4]: 1.32 µM | Ratio IC50 [5]: 5.12

COc1ccc(-n2nnc(-c3ccccc3NC(=O)c3ccc([N+](=O)[O-])cc3)n2)cc1
IC50 [1]: 27.4 µM | Ratio IC50 [2]: 2.73 | Ratio IC50 [3]: 2.49 | IC50 (NCI-H460): 24.7 µM | Ratio IC50 [5]: 1.76

COc1ccc(C(=O)Nc2ccccc2-c2nnn(-c3ccc(OC)cc3)n2)cc1
IC50 [1]: > 100 µM | Ratio IC50 [2]: 3.47 | Ratio IC50 [3]: 2.35 | IC50 (NCI-H460): > 100 µM | Ratio IC50 [5]: 2.29

COc1cccc(-n2nnc(-c3ccccc3NC(=O)c3ccc([N+](=O)[O-])cc3)n2)c1
IC50 [1]: > 100 µM | Ratio IC50 [2]: 2.72 | Ratio IC50 [3]: 1.8 | IC50 [6]: 0.307 µM | IC50 (NCI-H460): > 100 µM | Ratio IC50 [5]: 1.43

COc1cccc(-n2nnc(-c3ccccc3NC(=O)Nc3cccc([N+](=O)[O-])c3)n2)c1
IC50 [1]: > 100 µM | IC50 (NCI-H460): > 100 µM

CCCc1ccc(NC(=O)c2ccccc2NC(=O)c2ccccc2[N+](=O)[O-])cc1
IC50 [1]: > 100 µM | Ratio IC50 [2]: 11.75 | Ratio IC50 [3]: 9.36 | IC50 (NCI-H460): > 100 µM | Ratio IC50 [5]: 7.7

COc1ccc(-n2nnc(-c3ccccc3NC(=O)Nc3ccc([N+](=O)[O-])cc3)n2)cc1
IC50 [1]: 28.5 µM | Ratio IC50 [2]: 3.34 | Ratio IC50 [3]: 2.52 | IC50 (NCI-H460): 21.7 µM | Ratio IC50 [5]: 1.54

COc1cccc(-n2nnc(-c3ccccc3NC(=O)c3ccc(N=[N+]=[N-])cc3)n2)c1
IC50 [1]: 21.5 µM | Ratio IC50 [2]: 7.51 | Ratio IC50 [3]: 6.98 | IC50 (NCI-H460): 20.3 µM | Ratio IC50 [5]: 5.89

COc1ccc2c3c([nH]c2c1)[C@H](C=C(C)C)N1C(=O)[C@@H]2CCCN2C(=O)[C@@H]1C3 [FUMITREMORGIN]
Ratio IC50 [2]: 2.85 | Ratio IC50 [3]: 2.1 | IC50 [6]: 0.321 µM | Ratio IC50 [5]: 1.49

CCCc1ccc(NC(=O)c2ccccc2NC(=O)Nc2ccccc2[N+](=O)[O-])cc1
IC50 [1]: > 100 µM | Ratio IC50 [2]: 17.03 | Ratio IC50 [3]: 11.92 | IC50 (NCI-H460): > 100 µM | Ratio IC50 [5]: 5.21

COc1cccc(-n2nnc(-c3ccccc3NC(=O)c3ccc(NC(=O)CBr)cc3)n2)c1
IC50 [1]: > 100 µM | Ratio IC50 [2]: 2.81 | Ratio IC50 [3]: 2.07 | IC50 (NCI-H460): > 100 µM | Ratio IC50 [5]: 1.32

COc1cccc(-n2nnc(-c3ccccc3NC(=O)Nc3ccc(N=[N+]=[N-])cc3)n2)c1
IC50 [1]: > 100 µM | Ratio IC50 [2]: 4.25 | Ratio IC50 [3]: 3.21 | IC50 [6]: 0.685 µM | IC50 (NCI-H460): > 100 µM | Ratio IC50 [5]: 3.19

COc1cccc(-n2nnc(-c3ccccc3NC(=O)Nc3ccc(N)cc3)n2)c1
IC50 [1]: > 100 µM | Ratio IC50 [2]: 3.9 | Ratio IC50 [3]: 2.66 | IC50 (NCI-H460): > 100 µM | IC50 [4]: 0.571 µM | Ratio IC50 [5]: 1.76

COc1cccc(-n2nnc(-c3ccccc3NC(=O)Nc3ccc(NC(=O)CBr)cc3)n2)c1
IC50 [1]: > 100 µM | Ratio IC50 [2]: 3.71 | Ratio IC50 [3]: 2.71 | IC50 (NCI-H460): > 100 µM | Ratio IC50 [5]: 2.2

CCCc1ccc(NC(=O)c2ccccc2NC(=O)Nc2ccc(Br)cc2)cc1
IC50 [1]: > 100 µM | Ratio IC50 [2]: 12.35 | Ratio IC50 [3]: 9.87 | IC50 (NCI-H460): > 100 µM | Ratio IC50 [5]: 4.43

O=C(Nc1ccc([N+](=O)[O-])cc1)Nc1ccccc1C(=O)Nc1ccc(C(F)(F)F)cc1
IC50 [1]: > 100 µM | Ratio IC50 [2]: 3.31 | Ratio IC50 [3]: 2.81 | IC50 (NCI-H460): > 100 µM | Ratio IC50 [5]: 2.12

CCCc1ccc(NC(=O)c2ccccc2NC(=O)Nc2ccc(OC)cc2)cc1
IC50 [1]: > 100 µM | Ratio IC50 [2]: 15.68 | Ratio IC50 [3]: 10.12 | IC50 (NCI-H460): > 100 µM | Ratio IC50 [5]: 4.58

COc1cccc(-n2nnc(-c3ccccc3NC(=O)c3ccc(NC(C)=O)cc3)n2)c1
IC50 [1]: > 100 µM | Ratio IC50 [2]: 6.34 | Ratio IC50 [3]: 6.16 | IC50 (NCI-H460): > 100 µM | Ratio IC50 [5]: 5.58
